According to the NIST ThermoML archive (doi:10.1021/je800618x):
± gives the expanded uncertainty stated by the source.

Conditions: Crystal; DTA

CC[n+]1ccccc1.F[P-](F)(F)(F)(F)F [1-ethylpyridinium hexafluorophosphate]
Normal melting temperature: 103.20 ± 0.41 °C
